Measured values published in ChEMBL document CHEMBL1201862, “PubChem BioAssay data set” (2004).
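A five-concentration, 48-hour dose response in 96-well plates underlies each endpoint, interpolated linearly between surrounding concentrations. At the GI50, growth is halved.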 The source made the active and inactive calls. Rule as the data show it: active = GI50 up to about 1.1 µM and inactive = higher.

What was measured:
Experiment in all cases: growth of human tumour cells (NCI), 48 h
[1] = system: IGROV-1
[2] = system: EKVX
[3] = system: T47D
[4] = system: SF-268
[5] = system: M14
[6] = system: Hs-578T
[7] = system: NCI-H460
[8] = system: UO-31
[9] = system: U-251
[10] = system: SNB-75
[11] = system: OVCAR-5
[12] = system: MDA-N
[13] = system: SK-MEL-2
[14] = system: SF-295
[15] = system: OVCAR-3
[16] = system: DU-145
[17] = system: HOP-62
[18] = system: NCI-H522
[19] = system: Malme-3M

Measured: GI50

Cc1ccc(S(=O)(=O)N2CCCSCCSCCCN(S(=O)(=O)c3ccc(C)cc3)CC2)cc1
inactive: [1] > 100 µM | [2] > 100 µM | [3] 57.8 µM | [4] > 100 µM | [5] > 100 µM | [6] > 100 µM | [7] > 100 µM | [8] > 100 µM | [9] > 100 µM | [10] > 100 µM | [11] > 100 µM | [12] > 100 µM | [13] > 100 µM | [14] > 100 µM | [15] > 100 µM | [16] > 100 µM | [17] > 100 µM

CCCCN/N=N/c1cn(C2OC(CO)C(O)C2O)c(=O)[nH]c1=O (stereo unspecified)
inactive: [1] > 100 µM | [2] > 100 µM | [18] > 100 µM | [19] > 100 µM | [3] > 100 µM | [4] > 100 µM | [5] > 100 µM | [6] > 100 µM | [7] > 100 µM | [11] > 100 µM | [12] > 100 µM | [13] > 100 µM | [14] > 100 µM | [15] > 100 µM | [16] > 100 µM | [17] > 100 µM

CCN(CC)CCN(/C(=N/c1ccccc1)N1CCCCC1)c1ccccc1
inactive: [1] 2.75 µM | [2] 14.1 µM | [18] 2.62 µM | [19] 15.5 µM | [3] 2.31 µM | [4] 27.6 µM | [5] 6.34 µM | [6] 10.3 µM | [7] 4.78 µM | [8] 8.07 µM | [9] 12.7 µM | [10] > 10 µM | [12] 1.78 µM | [13] 14.5 µM | [14] 3.62 µM | [15] 2.88 µM | [16] 20.2 µM | [17] 8.18 µM

O=C(/C=C/c1ccc(F)c(F)c1)OCCc1ccccc1
inactive: [1] > 100 µM | [2] > 100 µM | [18] 38.6 µM | [19] > 100 µM | [3] 72.4 µM | [4] > 100 µM | [5] > 100 µM | [6] > 100 µM | [7] > 100 µM | [8] 90.4 µM | [9] > 100 µM | [10] 84.5 µM | [11] > 100 µM | [12] 73.5 µM | [13] > 100 µM | [14] > 100 µM | [15] > 100 µM | [16] > 100 µM | [17] > 100 µM

COCO[C@@H]1C[C@H]2C(=O)Nc3ccccc3C(=O)N2C1
inactive: [1] 33 µM | [2] > 100 µM | [18] 16.2 µM | [19] 40.3 µM | [3] 69.2 µM | [4] 36.4 µM | [5] > 100 µM | [6] 58.6 µM | [8] 27 µM | [9] 45.7 µM | [10] 45.3 µM | [11] 61.5 µM | [12] 39.2 µM | [13] 46.6 µM | [14] 30.8 µM | [16] 48.8 µM | [17] 39.8 µM

CC(=O)OCC1OC(OC(C)=O)C(Nc2ncc(-c3ccc(C)cc3)s2)C(OC(C)=O)C1OC(C)=O (stereo unspecified)
inactive: [1] 17.3 µM | [2] 14.3 µM | [18] 15.7 µM | [19] 21.2 µM | [3] 15.2 µM | [4] 16.5 µM | [5] 18.1 µM | [6] 22.5 µM | [7] 18.5 µM | [8] 14.7 µM | [9] 17 µM | [10] 15.5 µM | [11] 43.1 µM | [12] 18.4 µM | [13] 22.6 µM | [14] 22.9 µM | [15] 19.3 µM | [16] 31.3 µM | [17] 20.4 µM
